# Where “and” joins values, the source holds several entries; their conditions need not be identical. Equal values may be shown once. Toxic doses and inconclusive results are not listed.
# System: BDF1 mice, P388 leukemia ip, median survival T/C
# Test: NCI In Vivo Anticancer Drug Screen. Data for tumor model P388 Leukemia (intraperitoneal) in B6D2F1 (BDF1) mice
# Details: endpoint: median survival time, higher = longer survival
# Summary of the method: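 Antitumour effect was judged in vivo: survival in drug-treated mice, normalised to that of vehicle-dosed controls, gives the reported T/C.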
# [1] = dose: 100.0 mg/kg/injection, schedule: Q01DX009 (ip), vehicle: saline with Tween-80
# [2] = dose: 200.0 mg/kg/injection, schedule: Q01DX009 (ip), vehicle: saline with Tween-80
# [3] = dose: 50.0 mg/kg/injection, schedule: Q01DX009 (ip), vehicle: saline with Tween-80
# [4] = dose: 50.0 mg/kg/injection, schedule: Q04DX003 (ip), vehicle: saline with Tween-80
# [5] = dose: 100.0 mg/kg/injection, schedule: Q04DX003 (ip), vehicle: saline with Tween-80
# [6] = dose: 100.0 mg/kg/injection, schedule: Q04DX003 (ip), vehicle: Klucel (hydroxypropylcellulose) (HPC)
# [7] = dose: 200.0 mg/kg/injection, schedule: Q01DX009 (ip), vehicle: Klucel (hydroxypropylcellulose) (HPC)
# [8] = dose: 200.0 mg/kg/injection, schedule: Q04DX003 (ip), vehicle: Klucel (hydroxypropylcellulose) (HPC)
# [9] = dose: 400.0 mg/kg/injection, schedule: Q01DX009 (ip), vehicle: Klucel (hydroxypropylcellulose) (HPC)
# [10] = dose: 400.0 mg/kg/injection, schedule: Q04DX003 (ip), vehicle: Klucel (hydroxypropylcellulose) (HPC)
# [11] = dose: 200.0 mg/kg/injection, schedule: Q04DX003 (ip), vehicle: saline with Tween-80
# [12] = dose: 400.0 mg/kg/injection, schedule: Q04DX003 (ip), vehicle: saline with Tween-80
# [13] = dose: 400.0 mg/kg/injection, schedule: Q01DX009 (ip), vehicle: saline with Tween-80
# [14] = dose: 50.0 mg/kg/injection, schedule: Q04DX003 (ip), vehicle: saline
# [15] = dose: 132.0 mg/kg/injection, schedule: Q04DX003 (ip), vehicle: saline with Tween-80
# [16] = dose: 300.0 mg/kg/injection, schedule: Q04DX003 (ip), vehicle: saline with Tween-80
# [17] = dose: 12.5 mg/kg/injection, schedule: Q01DX009 (ip), vehicle: saline
# [18] = dose: 25.0 mg/kg/injection, schedule: Q01DX009 (ip), vehicle: saline
# [19] = dose: 100.0 mg/kg/injection, schedule: Q04DX003 (ip), vehicle: saline
# [20] = dose: 200.0 mg/kg/injection, schedule: Q04DX003 (ip), vehicle: saline
# [21] = dose: 50.0 mg/kg/injection, schedule: Q01DX009 (ip), vehicle: saline
smiles,measurement,setting,value
CC(=O)NCCN=Cc1ccccc1,T/C,[1],112 % of control
same,T/C,[2],120 % of control
COC(=O)/C(=C1/OC(=O)C(c2ccccc2)=C1O)c1ccccc1,T/C,"dose: 6.25 mg/kg/injection, schedule: Q01DX009 (ip), vehicle: saline with Tween-80",100 % of control
same,T/C,"dose: 11.0 mg/kg/injection, schedule: Q01DX009 (ip), vehicle: saline with Tween-80",115 % of control
same,T/C,"dose: 12.5 mg/kg/injection, schedule: Q01DX009 (ip), vehicle: saline with Tween-80",90 % of control
same,T/C,"dose: 16.5 mg/kg/injection, schedule: Q01DX009 (ip), vehicle: saline with Tween-80",105 % of control
same,T/C,"dose: 25.0 mg/kg/injection, schedule: Q01DX009 (ip), vehicle: saline with Tween-80",109 % of control and 112 % of control
same,T/C,"dose: 37.5 mg/kg/injection, schedule: Q01DX009 (ip), vehicle: saline with Tween-80",95 % of control
same,T/C,[3],100 % of control
C/C=C1\CN(C)[C@H]2Cc3c([nH]c4ccccc34)[C@@H](c3cc4[nH]c5c(c4cc3OC)CCN3C[C@H]4C[C@H](CC)[C@H]3[C@@]5(C(=O)OC)C4)C[C@H]1C2C(=O)OC (some centres not stated),T/C,"dose: 5.0 mg/kg/injection, schedule: Q01DX010 (ip), vehicle: water",90 % of control
same,T/C,"dose: 10.0 mg/kg/injection, schedule: Q01DX010 (ip), vehicle: water",109 % of control
same,T/C,"dose: 20.0 mg/kg/injection, schedule: Q01DX010 (ip), vehicle: water",118 % of control
C1CCN[N-]C1.C1CCN[N-]C1.[Cl][Pt+2]([Cl])([Cl])[Cl],T/C,"dose: 0.78 mg/kg/injection, schedule: Q01DX009 (ip), vehicle: water",103 % of control
same,T/C,"dose: 1.56 mg/kg/injection, schedule: Q01DX009 (ip), vehicle: water",112 % of control
same,T/C,"dose: 3.12 mg/kg/injection, schedule: Q01DX009 (ip), vehicle: water",120 % of control
same,T/C,"dose: 6.25 mg/kg/injection, schedule: Q01DX009 (ip), vehicle: water",106 % of control and 111 % of control
same,T/C,"dose: 25.0 mg/kg/injection, schedule: Q04DX003 (ip), vehicle: water",104 % of control
same,T/C,"dose: 50.0 mg/kg/injection, schedule: Q04DX003 (ip), vehicle: water",95 % of control
CC(=O)NC(Cc1ccc(N(CCCl)CCCl)cc1)C(=O)NC(CC(C)C)C(=O)O (configuration not stated),T/C,"dose: 20.0 mg/kg/injection, schedule: Q04DX003 (ip), vehicle: other",152 % of control
same,T/C,"dose: 40.0 mg/kg/injection, schedule: Q04DX003 (ip), vehicle: other",203 % of control
same,T/C,"dose: 80.0 mg/kg/injection, schedule: Q04DX003 (ip), vehicle: other",239 % of control
same,T/C,"dose: 160.0 mg/kg/injection, schedule: Q04DX003 (ip), vehicle: other",104 % of control
O=c1oc2c(c(N(c3ccccc3)c3ccccc3)c1Cl)CSc1ccccc1-2,T/C,"dose: 25.0 mg/kg/injection, schedule: Q04DX003 (ip), vehicle: saline with Tween-80",100 % of control
same,T/C,[4],93 % of control
same,T/C,[5],90 % of control
COc1cccc(C(=O)O)c1OS(=O)(=O)c1ccccc1,T/C,"dose: 100.0 mg/kg/injection, schedule: Q01DX009 (ip), vehicle: Klucel (hydroxypropylcellulose) (HPC)",104 % of control
same,T/C,[6],110 % of control
same,T/C,[7],95 % of control
same,T/C,[8],90 % of control
same,T/C,[9],90 % of control
same,T/C,[10],105 % of control
CCN=C(N)N=C(N)N,T/C,"dose: 100.0 mg/kg/injection, schedule: Q01DX001 (ip), vehicle: saline",102 % of control
CCOC(=O)C(=O)Cc1cnc2ccccc2n1,T/C,[6],86 % of control
same,T/C,[8],86 % of control
same,T/C,[10],90 % of control
COP(=O)(OC)C(OC(=O)C(C)(C)SC(C)=S)=C(C)C,T/C,[5],110 % of control
same,T/C,[11],115 % of control
same,T/C,[12],115 % of control
COC(=O)NC1CCCCC1I (configuration not stated),T/C,[1],100 % of control
same,T/C,[5],100 % of control
same,T/C,[2],100 % of control
same,T/C,[11],100 % of control
same,T/C,[13],100 % of control
same,T/C,[12],109 % of control
NNC(=S)SCc1ccccc1,T/C,"dose: 15.0 mg/kg/injection, schedule: Q01DX009 (ip), vehicle: saline with Tween-80",106 % of control
same,T/C,"dose: 30.0 mg/kg/injection, schedule: Q01DX009 (ip), vehicle: saline with Tween-80",98 % of control
COc1c(I)cc(/C=C(\C)[N+](=O)[O-])cc1I,T/C,[3],110 % of control
same,T/C,[1],112 % of control
S=C1SCN(Cc2ccccc2)CN1Cc1ccccc1,T/C,"dose: 100.0 mg/kg/injection, schedule: Q01DX001 (ip), vehicle: Klucel (hydroxypropylcellulose) (HPC)",113 % of control
same,T/C,"dose: 200.0 mg/kg/injection, schedule: Q01DX001 (ip), vehicle: Klucel (hydroxypropylcellulose) (HPC)",100 % of control
same,T/C,"dose: 400.0 mg/kg/injection, schedule: Q01DX001 (ip), vehicle: Klucel (hydroxypropylcellulose) (HPC)",100 % of control
O=C(/C=C/c1ccc(OCc2ccccc2)cc1)c1cccc(Br)c1,T/C,[3],89 % of control
same,T/C,[1],100 % of control
same,T/C,[2],91 % of control
Nc1nc(=S)c2ncn(C3OC(CO)C(O)C3O)c2[nH]1 (configuration not stated),T/C,"dose: 1.0 mg/kg/injection, schedule: Q01DX010 (ip), vehicle: saline",118 % of control
same,T/C,"dose: 2.0 mg/kg/injection, schedule: Q01DX010 (ip), vehicle: saline",118 % of control
same,T/C,"dose: 4.0 mg/kg/injection, schedule: Q01DX010 (ip), vehicle: saline",100 % of control and 109 % of control
same,T/C,"dose: 8.0 mg/kg/injection, schedule: Q01DX010 (ip), vehicle: saline",90 % of control and 100 % of control
same,T/C,[14],118 % of control
same,T/C,[15],122 % of control
same,T/C,"dose: 200.0 mg/kg/injection, schedule: Q01DX009 (ip), vehicle: saline",117 % of control
same,T/C,[16],122 % of control
same,T/C,"dose: 400.0 mg/kg/injection, schedule: Q01DX009 (ip), vehicle: saline",111 % of control
CC(=O)Nc1ccc(S(=O)(=O)Oc2ccc([N+](=O)[O-])cc2)cc1,T/C,"dose: 1.56 mg/kg/injection, schedule: Q01DX009 (ip), vehicle: saline",96 % of control
same,T/C,"dose: 3.12 mg/kg/injection, schedule: Q01DX009 (ip), vehicle: saline",112 % of control
same,T/C,"dose: 6.25 mg/kg/injection, schedule: Q01DX009 (ip), vehicle: saline",107 % of control
same,T/C,[17],93 % of control
same,T/C,[18],92 % of control and 103 % of control
O=C(O)CNCc1ccc(F)cc1,T/C,[14],111 % of control
same,T/C,[19],120 % of control
same,T/C,[20],115 % of control
CC1(CNC(=O)C(=O)NCC2(C)CO2)CO1 (configuration not stated),T/C,[4],158 % of control
same,T/C,[1],154 % of control
same,T/C,[5],191 % of control
same,T/C,[15],208 % of control
same,T/C,[11],183 % of control
same,T/C,[16],233 % of control
CCCC(=O)Nc1ccn(C2OC(COC(=O)CCC)C(OC(=O)CCC)C2OC(=O)CCC)c(=O)n1 (configuration not stated),T/C,"dose: 6.25 mg/kg/injection, schedule: Q01DX009 (ip), vehicle: Klucel (hydroxypropylcellulose) (HPC)",91 % of control
same,T/C,"dose: 12.5 mg/kg/injection, schedule: Q01DX009 (ip), vehicle: Klucel (hydroxypropylcellulose) (HPC)",100 % of control
same,T/C,"dose: 25.0 mg/kg/injection, schedule: Q01DX009 (ip), vehicle: Klucel (hydroxypropylcellulose) (HPC)",87 % of control
same,T/C,"dose: 50.0 mg/kg/injection, schedule: Q01DX009 (ip), vehicle: Klucel (hydroxypropylcellulose) (HPC)",104 % of control
same,T/C,[6],100 % of control
same,T/C,[7],165 % of control and 177 % of control
same,T/C,[8],109 % of control
same,T/C,[9],181 % of control and 190 % of control
same,T/C,[10],122 % of control
CSc1ncc2n1C=CN(C(=O)c1ccc([N+](=O)[O-])cc1)C2O (configuration not stated),T/C,[17],99 % of control
same,T/C,[18],87 % of control
same,T/C,"dose: 25.0 mg/kg/injection, schedule: Q04DX003 (ip), vehicle: saline",107 % of control
same,T/C,[21],92 % of control
same,T/C,[14],94 % of control
same,T/C,[19],93 % of control
same,T/C,[20],90 % of control
CSc1sc2ccccc2[n+]1C,T/C,[18],100 % of control and 104 % of control
same,T/C,[21],90 % of control and 120 % of control
same,T/C,"dose: 100.0 mg/kg/injection, schedule: Q01DX009 (ip), vehicle: saline",86 % of control and 119 % of control
O=C(/C=C/c1c(Cl)cccc1Cl)c1ccc(Cl)cc1,T/C,[1],86 % of control
same,T/C,[2],90 % of control
same,T/C,[13],104 % of control
Cn1c2c(sc1=O)CCC2,T/C,[14],100 % of control
same,T/C,[19],87 % of control
same,T/C,[20],100 % of control
